Measurements as given in patent US20240286998A1, “F[…], ANALOGUES THEREOF, AND METHODS USING SAME” (Saint Joseph's University, priority 2021, published 2024).
Like-named read-outs stand apart in the source and are kept apart here.

How the values were obtained:
[1] = molecular target: 5-HT2B (Homo sapiens (Human), UniProt P41595); test: 5-HT2B Gq-mediated calcium flux functional assay; type: cell-based; conditions: for 5-HT2B-Ca2+ FLUX Emax (% 5-HT): IA = Inactive, N=1-3
[2] = molecular target: 5-HT2C (Homo sapiens (Human), UniProt P28335); test: 5-HT2C Gq-mediated calcium flux functional assay; type: cell-based; conditions: for 5-HT2C-Ca2+ FLUX Emax (% 5-HT): IA = Inactive, N=1-3
Chain of 5-HT2C (P28335 whole entry, looked up): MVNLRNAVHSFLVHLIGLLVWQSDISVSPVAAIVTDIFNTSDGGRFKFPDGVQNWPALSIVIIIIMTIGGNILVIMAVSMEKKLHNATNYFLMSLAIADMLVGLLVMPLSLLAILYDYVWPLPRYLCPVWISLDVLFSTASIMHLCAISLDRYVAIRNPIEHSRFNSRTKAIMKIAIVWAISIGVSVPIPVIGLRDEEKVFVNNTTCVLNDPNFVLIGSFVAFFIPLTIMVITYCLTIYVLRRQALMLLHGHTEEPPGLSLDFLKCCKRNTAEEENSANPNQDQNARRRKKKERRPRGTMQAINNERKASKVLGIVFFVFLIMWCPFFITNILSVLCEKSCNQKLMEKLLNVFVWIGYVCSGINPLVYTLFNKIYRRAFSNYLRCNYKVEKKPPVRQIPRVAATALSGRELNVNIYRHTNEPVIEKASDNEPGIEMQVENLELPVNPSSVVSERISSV

[3] = molecular target: 5-HT2A (Homo sapiens (Human), UniProt P28223); test: 5-HT2A Gq-mediated calcium flux functional assay; type: cell-based; conditions: for 5-HT2A-Ca2+ FLUX Emax (% 5-HT): IA = Inactive, N=1-3
[4] = system: C57BL/6J mice; test: Head-Twitch Response (HTR) in mice; type: in vivo; conditions: for ED50: Mus musculus, ip, 0.5 h
Method: Male C57BL/6J mice (6-8 weeks old) were obtained from Jackson Laboratories (Bar Harbor, ME) and housed in a vivarium at the University of California San Diego, an AAALAC-approved animal facility that meets all federal and state requirements for care and treatment of laboratory animals. All animal experiments were carried out in accordance with NIH guidelines and were approved by the UCSD Institutional Animal Care and Use Committee. Mice were housed up to four per cage in a climate-controlled room on a reverse-light cycle (lights on at 1900 h, off at 0700 h). Animals were provided with ad libitum access to food and water, with the exception of during behavioral testing.
Testing was conducted between 1000 and 1800 h. Head movements were recorded using a head-mounted magnet and a magnetometer coil as described in Halberstadt et al. (Psychopharmacology, 2013, 227(4):727-739). For the head mounted magnet, mice were anesthetized, an incision was made in the scalp, and a neodymium magnet was attached to the dorsal surface of the cranium using dental cement. Following a 2-week recovery period, behavioral experiments were conducted in a well-lit room. At least 7 days occurred between sessions to avoid any carryover effects. Test substances (i.e., dimethyltryptamine (DMT), diethyltryptamine (DET), psilocybin, 6-fluoro-diethyltryptamine (6-F-DET), compounds 3-4, 6, 9, 12-13, 22, 33, 41, 69, 88, 166, and 178) were administered intraperitoneally (IP) at a volume of 5 mL/kg. Mice were treated with vehicle (saline) or 6 doses of the test compound and then placed in a glass cylinder surrounded by a magnetometer coil and tested for 30 min. Coil voltage was filtered (1 kHz lowpass), digitized (20 kHz sampling rate) and saved to disk using a Powerlab/8SP with LabChart v 7.3.2 (ADInstruments, Colorado Springs, CO).
The entire 30 min recordings were examined for head twitches. Established procedures based on artificial intelligence were used to identify head twitches in the recordings (Scientific Reports, 2020, 10(1):1-12). HTR counts were analyzed using one-way analyses of variance (ANOVA), followed by post hoc pairwise comparisons between individual groups and vehicle using Dunnett's multiple comparisons test. […] Median effective doses (ED50 values) and 95% confidence intervals (95% CI) were calculated using nonlinear regression (Prism 9.0.2, GraphPad Software, San Diego, CA) (Table 4 and FIGS. 1-3).

[5] = molecular target: 5-HT1A (Homo sapiens (Human), UniProt P08908); test: 5-HT1A Gi/o-mediated cAMP inhibition, GloSensor assay; type: cell-based; conditions: for 5-HT1A-cAMP Emax (% 5-HT): cAMP inhibition, 0.2 μM isoproterenol, IA = Inactive
[6] = In vivo intravenous pharmacokinetic study in rats; set-up: species or system Sprague Dawley rats; conditions: rat, mean; for Vd: iv, 1 mg/kg
Method: For the in vivo stability study described herein, 1 mg/kg of drug was administered by intravenous injection (i.e., dose volume 2 mL/kg, vehicle 5% DMSO:95% hydroxypropyl-beta-cyclodextrin (20% w/v in water)) to three male Sprague Dawley rats (˜300 g at time of dosing). Blood samples (˜240 μL) were collected via venipuncture at various time points (5, 15, 30, 60 120 240, 480 and 1,440 min) into K2EDTA-coated tubes. The samples were spun at 10,000 rpm (9,600×G) for 2 minutes. 100 μL of the resulting plasma was then collected and stored at −80° C. until analyzed by HPLC as described above.
Compound 3 administered intravenously (1 mg/kg); Vehicle: 5% DMSO, 95% 2-hydroxypropyl-β-cyclodextrin (HPBCD) (20% w/v in water); Plasma concentrations were quantified at multiple time points by UHPLC-MS-MS; N=3.

[7] = molecular target: Serotonin 5-HT2A (human) (Homo sapiens (Human), UniProt P28223); test: 5-HT2A receptor binding, [3H]-ketanserin competition in membrane fractions; conditions: 1 nM [3H]-ketanserin, Cheng-Prusoff, N=1-3
[8] = Metabolic stability in cryopreserved human hepatocytes; type: in vitro ADME; conditions: cryopreserved hepatocytes, human hepatocytes, 1 μM, 37° C.; for hepatocyte CLint at 1 μM: read-out: Clint (μL/min/10^6 cells)
Method: (§1) The metabolic stability of a test compounds were assessed by monitoring disappearance of each compound in the presence of cryopreserved hepatocytes for up to 1 hour at 37° C. Following protein precipitation and centrifugation, the samples were analyzed by UPLC-MS-MS. Test Compound stock solutions (10 mM) were diluted 1 in 100 (2 μL 10 mM DMSO stock+198 μL 50:50 acetonitrile:water) to provide a 100 μM working solution. Following addition of test compounds to buffer, samples were pre-incubated at 37° C. for 5 minutes prior to initiating the incubation by the addition of test compounds to hepatocytes (these were held at 37° C. during pre-incubation period). Aliquots were sampled at 0, 5, 10, 20, 40 and 60 min and added to ice cold acetonitrile to terminate the reaction and precipitate proteins. All samples were mixed, centrifuged, and the supernatants were analyzed by UPLC-MS-MS using a Phenomenex Luna Omega […], C18 100 Å, 50×2.1 mm column. The final incubation conditions were as follows: hepatocytes 0.5×10^6 viable cells/mL, test compound 1 μM (n=1), acetonitrile concentration<0.01% (v/v) and DMSO concentration<0.01% (v/v). The intrinsic clearance (Clint) and half-life (T1/2) values are determined from the slope of the parent depletion curve. Positive control compounds with known metabolic clearance were included (diltiazem and naloxone).

[9] = system: human hepatocytes; test: as above; type: in vitro ADME; conditions: for metabolism by human hepatocytes: qualitative statement
Method: as §1

[10] = system: C57BL/6J mice; conditions: reported values of known 5HT2A agonists run under comparable conditions; dash = ED50 could not be estimated; cited from earlier work
[11] = read-out: HTR ED50 μmol/kg (95% CI)
[12] = read-out: HTR ED50 mg/kg (95% CI)
[13] = male, Sprague Dawley, plasma, intravenous 1 mg/kg, N=3
[14] = human hepatocytes, 1 μM, 37° C.

Chain of 5-HT2B (P41595 whole entry): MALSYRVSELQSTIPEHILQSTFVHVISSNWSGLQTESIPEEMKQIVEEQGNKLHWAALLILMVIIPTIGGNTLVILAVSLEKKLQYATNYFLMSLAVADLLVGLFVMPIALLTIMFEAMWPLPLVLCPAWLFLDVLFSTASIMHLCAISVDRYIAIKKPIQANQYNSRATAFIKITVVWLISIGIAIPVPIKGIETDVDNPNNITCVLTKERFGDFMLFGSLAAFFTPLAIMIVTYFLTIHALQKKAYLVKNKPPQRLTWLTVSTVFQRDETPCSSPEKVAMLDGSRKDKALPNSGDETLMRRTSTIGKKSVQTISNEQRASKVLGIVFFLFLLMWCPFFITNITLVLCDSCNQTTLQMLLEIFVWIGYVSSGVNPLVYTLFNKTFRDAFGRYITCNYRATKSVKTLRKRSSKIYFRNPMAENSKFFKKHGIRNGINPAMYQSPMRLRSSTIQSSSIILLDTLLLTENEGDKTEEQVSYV

CCC(C)N(C)CCc1c[nH]c2ccc(F)cc12 (stereo not drawn) [Example 3, N-(2-(5-fluoro-1H-indol-3-yl)ethyl)-N-methylbutan-2-amine]
EC50 [1]: 9.12 nM | 5-HT2B-Ca2+ FLUX Emax (% 5-HT) [1]: 37.5 ± 1.5 % 5-HT | EC50 [2]: 49 nM | 5-HT2C-Ca2+ FLUX Emax (% 5-HT) [2]: 56.0 ± 0.9 % 5-HT | EC50 [3]: 3.72 nM | 5-HT2A-Ca2+ FLUX Emax (% 5-HT) [3]: 94.8 ± 0.8 % 5-HT | ED50 [4, 11]: 6.28 µmol/kg | ED50 [4, 12]: 1.79 mg/kg | EC50 [5]: 3890 nM | 5-HT1A-cAMP Emax (% 5-HT) [5]: 83.3 ± 5.7 % 5-HT | AUC [6, 13]: 594 ng·h/mL | AUC(0-inf) [6, 13]: 597 ng·h/mL | C0 [6, 13]: 2490 ng/mL | clearance [6, 13]: 29.5 mL/min/kg | half-life ([6]; male, Sprague Dawley, plasma, intravenous 1 mg/kg, N=3, read-out: Half-Life (converted)): 65.4 min | Vd ([6]; male, Sprague Dawley, plasma, N=3, read-out: Vss): 0.999 L/kg | Vd ([6]; male, Sprague Dawley, plasma, N=3, read-out: Vz): 3.04 L/kg | AUC % Extrapolation to C0 ([6]; intravenous 1 mg/kg, N=3): 27.7% | AUC % Extrapolation to Inf ([6]; intravenous 1 mg/kg, N=3): 0.570% | half-life ([6]; intravenous 1 mg/kg, N=3): 65.4 min | 5-HT2A pKi ± SEM [7]: 6.23 ± 0.30 | half-life at 1 μM [8]: 11 min | hepatocyte CLint at 1 μM [8]: 132 µL/min/1e6 cells | metabolism by human hepatocytes [9]: rapidly metabolized

CCCN(CCc1c[nH]c2ccc(F)cc12)C(C)C [Example 4, N-(2-(5-fluoro-1H-indol-3-yl)ethyl)-N-isopropylpropan-1-amine]
EC50 [1]: 0.759 nM | 5-HT2B-Ca2+ FLUX Emax (% 5-HT) [1]: 105.60 ± 0.7 % 5-HT | EC50 [2]: 9.12 nM | 5-HT2C-Ca2+ FLUX Emax (% 5-HT) [2]: 74.6 ± 2.0 % 5-HT | EC50 [3]: 0.468 nM | 5-HT2A-Ca2+ FLUX Emax (% 5-HT) [3]: 99.5 ± 1.1 % 5-HT | ED50 [4, 11]: 2.18 µmol/kg | ED50 [4, 12]: 0.65 mg/kg | HTR counts over baseline / induction of HTR ([4]; compared to vehicle): significant increase | EC50 [5]: 331 nM | 5-HT1A-cAMP Emax (% 5-HT) [5]: 80.5 ± 2.5 % 5-HT | 5-HT2A pKi ± SEM [7]: 6.02 ± 0.07 | half-life at 1 μM [8]: 13 min | hepatocyte CLint at 1 μM [8]: 109 µL/min/1e6 cells | metabolism by human hepatocytes [9]: rapidly metabolized

CN(C)CCc1c[nH]c2cccc(OP(=O)(O)O)c12 [Psilocybin]
HTR ED50 μmol/kg (95% CI) [10]: 1.40 µmol/kg | HTR ED50 mg/kg (95% CI) [10]: 0.38 mg/kg

COc1ccc([C@@H]2Sc3ccccc3N(CCN(C)C)C(=O)[C@@H]2OC(C)=O)cc1 [diltiazem, reference compound]
Clint (μL/min/10^6 cells) [9, 14]: 32 μL/min/10^6 cells | T1/2 [9, 14]: 44 min

C=CCN1CC[C@]23c4c5ccc(O)c4O[C@H]2C(=O)CC[C@@]3(O)[C@H]1C5 [naloxone, reference compound]
half-life at 1 μM [8]: 10 min | hepatocyte CLint at 1 μM [8]: 138 µL/min/1e6 cells
